Patent EP0745595A1, “3-(3-Aryloxyphenyl)-1-(substituted methyl)-s-triazine-2,4,6-oxo or thiotrione herbicidal agents” (American Cyanamid Company, priority 1995, dated 1996)

Experiments:
Format in all cases: in vivo
[1] = tested on: GLYCINE MAX(L) MERR. CV. WILLIAMS; assay: Postemergence herbicidal evaluation, GLXMAW (Soybean, Williams); settings: crop, rated four to five weeks after treatment, averaged
Procedure: In the tests, seedling plants are grown in jiffy flats for about two weeks. The test compounds are dispersed in 50/50 acetone/water mixtures containing 0.5% TWEEN®20, a polyoxyethylene sorbitan monolaurate surfactant of Atlas Chemical Industries, in sufficient quantities to provide the equivalent of about 0.125 kg to 0.500 kg per hectare of active compound when applied to the plants through a spray nozzle operating at 40 psi for a predetermined time. After spraying, the plants are placed on greenhouse benches and are cared for in the usual manner, commensurate with conventional greenhouse practices. From four to five weeks after treatment, the seedling plants are examined and rated according to the rating system set forth below. Where more than one test is involved for a given compound, the data are averaged.
Plant species employed in these evaluations are reported by header abbreviation, common name and scientific name.
(§1) Results of herbicide evaluation are expressed on a rating scale (0-9). The scale is based upon a visual observation of plant stand, vigor, malformation, size, chlorosis and overall plant appearance as compared with a control.

CASSIA OBTUSIFOLIA, L. = assay: Preemergence herbicidal evaluation, CASOB (Sicklepod); settings: Rate 0.500 kg/ha, rated four to five weeks after treatment
Excerpt: as §1
(§2) The preemergence herbicidal activity of the test compounds of the present invention is exemplified by the following tests in which the seeds of a variety of monocotyledonous and dicotyledonous plants are separately mixed with potting soil and planted on top of approximately one inch of soil in separate pint cups. […] The treated cups are then placed on greenhouse benches, watered and cared for in accordance with conventional greenhouse procedures. From four to five weeks after treatment, the tests are terminated and each cup is examined and rated according to the rating system provided in Example 40.
(§3) The compounds evaluated are reported by compound number given in Example 40.

GALIUM APARINE = assay: Preemergence herbicidal evaluation, GALAP (Galium); settings: Rate 0.500 kg/ha, rated four to five weeks after treatment
Excerpt: as §1, §2, §3

[2] = tested on: CYPERUS SEROTINUS, ROTTB.; assay: Preemergence weed control under flooded paddy conditions, CYPSE (Flatsedge); settings: preemergence, 3-4 weeks after treatment
Procedure, shortened: (§4)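 Flooded paddy preemergence test: seeds/propagating organs in top 0.5 cm silt loam, water held 1.5-3 cm above soil. Dosing by pipette into flood water, aqueous/acetone 50/50 v/v, ~0.5, 0.25, 0.125, 0.063 kg/ha a.i. Greenhouse; read at 3-4 wk, 0-9 visual scale.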

SAGITTARIA PYGMAEA, L. = assay: Preemergence weed control under flooded paddy conditions, SAGPY (Arrowhead (Pygmaea)); settings: preemergence, 3-4 weeks after treatment
Procedure, shortened: as §4

[3] = tested on: ORYZA SATIVA, L. TEBONNET; assay: Rice tolerance to post-transplant applications under flooded paddy conditions, ORYSAT (Rice, Tebonnet); settings: post-transplant rice, 3-4 weeks after treatment
Procedure, shortened: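 Post-transplant paddy test: compound applied 3 d after transplanting to flooded soil (1.5-3 cm water), ~0.063-0.5 kg/ha a.i., 50/50 aq/acetone. Silt loam, 2 × 10-d seedlings/pot. Greenhouse 3-4 wk, visual 0-9 score vs control.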

Structure (SMILES) | GLXMAW, herbicide rating (0-9) ([1]; Rate 0.125 kg/ha) | GLXMAW, herbicide rating (0-9) ([1]; Rate 0.250 kg/ha) | GLXMAW, herbicide rating (0-9) ([1]; Rate 0.500 kg/ha) | CASOB herbicidal rating (CASSIA OBTUSIFOLIA, L.) | GALAP herbicidal rating (GALIUM APARINE) | Herbicidal effect rating, CYPSE ([2]; 0.063 kg/ha) | Herbicidal effect rating, CYPSE ([2]; 0.125 kg/ha) | Herbicidal effect rating, CYPSE ([2]; 0.250 kg/ha) | Herbicidal effect rating, CYPSE ([2]; 0.500 kg/ha) | Herbicidal effect rating, SAGPY (SAGITTARIA PYGMAEA, L.; 0.063 kg/ha) | Herbicidal effect rating, SAGPY (SAGITTARIA PYGMAEA, L.; 0.125 kg/ha) | Herbicidal effect rating, SAGPY (SAGITTARIA PYGMAEA, L.; 0.250 kg/ha) | Herbicidal effect rating, SAGPY (SAGITTARIA PYGMAEA, L.; 0.500 kg/ha) | Herbicidal effect rating, ORYSAT ([3]; 0.063 kg/ha) | Herbicidal effect rating, ORYSAT ([3]; 0.125 kg/ha) | Herbicidal effect rating, ORYSAT ([3]; 0.250 kg/ha) | Herbicidal effect rating, ORYSAT ([3]; 0.500 kg/ha)
COC(=O)Cn1c(=O)n(C)c(=O)n(-c2cc(Oc3ccc(F)cc3C(F)(F)F)ccc2[N+](=O)[O-])c1=O [Compound 21] | 4.0 | 4.0 | 4.0 | 7.0 | 9.0 | 0.0 | 0.0 | 0.0 | 0.0 | 0.0 | 0.0 | 0.0 | 0.0 | 0.0 | 0.0 | 0.0 | 0.5
COC(=O)Cn1c(=O)n(C)c(=O)n(-c2cc(Oc3ccc(F)c(F)c3F)ccc2[N+](=O)[O-])c1=O [Compound 27, Methyl tetrahydro-3-methyl-5-[2-nitro-5-(2,3,4-trifluorophenoxy)phenyl]-2,4,6-trioxo-s-triazine-1(2H)-acetate] | – | – | – | 0.0 | 8.0 | 0.0 | 0.0 | 0.0 | 0.0 | 0.0 | 0.0 | 0.0 | 0.0 | 0.0 | 1.0 | 2.0 | 1.5
